Data reported in ChEMBL document CHEMBL5331114, “Discovery of Pyxinol Amide Derivatives Bearing Amino Acid Residues as Nonsubstrate Allosteric Inhibitors of P-Glycoprotein-Mediated Multidrug Resistance” (J Med Chem, 2023).

Legend:
[1] = Reversal of multidrug resistance in human KBV Cells assessed as reversal fold of paclitaxel IC50 at 5 uM incubated for 72 hrs in presence of paclitaxel by MTT assay; assay type: functional
[2] = Reversal of multidrug resistance in human KBV Cells assessed as reversal fold of paclitaxel IC50 at 10 uM incubated for 72 hrs in presence of paclitaxel by MTT assay; assay type: functional
[3] = Cytotoxicity against human KBV Cells assessed as cell survival rate at 10 uM incubated for 72 hrs by MTT assay; assay type: functional; conditions: read-out: Survival
[4] = Reversal of multidrug resistance in human KBV Cells assessed as increase in PTX-induced cytotoxicity by measuring cell survival rate at 10 uM incubated for 72 hrs in presence of paclitaxel by MTT assay relative to control; assay type: functional; conditions: read-out: Survival
[5] = Reversal of multidrug resistance in human KBV Cells assessed as increase in PTX-induced cytotoxicity by measuring cell survival rate at 5 uM incubated for 72 hrs in presence of paclitaxel by MTT assay relative to control; assay type: functional; conditions: read-out: Survival
[6] = Drug accumulation in human KBV cells at 10 uM incubated for 4 hrs by LC-MS/MS analysis; assay type: ADME, cell-based
[7] = Drug accumulation in human KB cells at 10 uM incubated for 4 hrs by LC-MS/MS analysis; assay type: ADME, cell-based

Row | SMILES | fold change (FC) [1] | fold change (FC) [2] | viability at 10 µM [3] | viability at 10 µM [4] | viability at 5 µM [5] | Drug uptake [6] | Drug uptake [7]
1 | CC(C)(C)OC(=O)N[C@@H](Cc1ccccc1)C(=O)N[C@H]1CC[C@]2(C)[C@H]3C[C@@H](O)[C@@H]4[C@@H]([C@]5(C)CC[C@@H](C(C)(C)O)O5)CC[C@@]4(C)[C@]3(C)CC[C@H]2C1(C)C | 21 | 49 | 102% | 24% | 31% | – | –
2 | CC(C)[C@H](N)C(=O)N[C@H]1CC[C@]2(C)[C@H]3C[C@@H](O)[C@@H]4[C@@H]([C@]5(C)CC[C@H](C(C)(C)O)O5)CC[C@@]4(C)[C@]3(C)CC[C@H]2C1(C)C | 36 | 46 | 74% | 32% | 34% | – | –
3 | CC(C)(O)[C@@H]1CC[C@@](C)([C@H]2CC[C@]3(C)[C@@H]2[C@H](O)C[C@@H]2[C@@]4(C)CC[C@H](NC(=O)[C@@H](N)Cc5ccc(O)cc5)C(C)(C)[C@@H]4CC[C@]23C)O1 | – | – | 91% | 71% | 88% | – | –
4 | CC(C)[C@H](NC(=O)OC(C)(C)C)C(=O)N[C@H]1CC[C@]2(C)[C@H]3C[C@@H](O)[C@@H]4[C@@H]([C@]5(C)CC[C@H](C(C)(C)O)O5)CC[C@@]4(C)[C@]3(C)CC[C@H]2C1(C)C | – | – | 114% | 21% | 36% | – | –
5 | CC(C)(C)OC(=O)NCCCC[C@H](NC(=O)OC(C)(C)C)C(=O)N[C@H]1CC[C@]2(C)[C@H]3C[C@@H](O)[C@@H]4[C@@H]([C@]5(C)CC[C@H](C(C)(C)O)O5)CC[C@@]4(C)[C@]3(C)CC[C@H]2C1(C)C | – | – | 119% | 33% | 47% | – | –
6 | CC(C)(O)[C@H]1CC[C@@](C)([C@H]2CC[C@]3(C)[C@@H]2[C@H](O)C[C@@H]2[C@@]4(C)CC[C@H](NC(=O)[C@@H](N)Cc5ccc(O)cc5)C(C)(C)[C@@H]4CC[C@]23C)O1 | – | – | 93% | 35% | 59% | – | –
7 | CC(C)(C)OC(=O)N1CCC[C@H]1C(=O)O[C@H]1CC[C@]2(C)[C@H]3C[C@@H](O)[C@@H]4[C@@H]([C@]5(C)CC[C@@H](C(C)(C)O)O5)CC[C@@]4(C)[C@]3(C)CC[C@H]2C1(C)C | – | – | 103% | 35% | 66% | – | –
8 | CC(C)(O)[C@@H]1CC[C@@](C)([C@H]2CC[C@]3(C)[C@@H]2[C@H](O)C[C@@H]2[C@@]4(C)CC[C@H](NC(=O)[C@@H]5CCCN5)C(C)(C)[C@@H]4CC[C@]23C)O1 | – | – | 78% | 58% | 83% | – | –
9 | CC(C)(O)[C@H]1CC[C@@](C)(C2CC[C@]3(C)[C@@H]2[C@H](O)C[C@@H]2[C@@]4(C)CC[C@H](O)C(C)(C)[C@@H]4CC[C@]23C)O1 (stereo partly drawn) | – | – | 94% | 64% | – | – | –
10 | CC(C)(C)OC(=O)NCCCC[C@H](NC(=O)OC(C)(C)C)C(=O)N[C@H]1CC[C@]2(C)[C@H]3C[C@@H](O)[C@@H]4[C@@H]([C@]5(C)CC[C@@H](C(C)(C)O)O5)CC[C@@]4(C)[C@]3(C)CC[C@H]2C1(C)C | – | – | 99% | 29% | 36% | – | –
11 | CC(C)(O)[C@@H]1CC[C@@](C)([C@H]2CC[C@]3(C)[C@@H]2[C@H](O)C[C@@H]2[C@@]4(C)CC[C@H](NC(=O)[C@@H](N)CC(=O)O)C(C)(C)[C@@H]4CC[C@]23C)O1 | – | – | 90% | 88% | 84% | – | –
12 | CC(C)(O)[C@H]1CC[C@@](C)([C@H]2CC[C@]3(C)[C@@H]2[C@H](O)C[C@@H]2[C@@]4(C)CC[C@H](NC(=O)[C@@H](N)CCCCN)C(C)(C)[C@@H]4CC[C@]23C)O1 | – | – | 116% | 112% | 110% | – | –
13 | CC(C)(C)OC(=O)N1CCC[C@H]1C(=O)N[C@H]1CC[C@]2(C)[C@H]3C[C@@H](O)[C@@H]4[C@@H]([C@]5(C)CC[C@H](C(C)(C)O)O5)CC[C@@]4(C)[C@]3(C)CC[C@H]2C1(C)C | – | – | 155% | 32% | 41% | – | –
14 | CC(C)(C)OC(=O)N1CCC[C@H]1C(=O)O[C@H]1CC[C@]2(C)[C@H]3C[C@@H](O)[C@@H]4[C@@H]([C@]5(C)CC[C@H](C(C)(C)O)O5)CC[C@@]4(C)[C@]3(C)CC[C@H]2C1(C)C | – | – | 102% | 70% | 111% | – | –
15 | CC(C)(C)OC(=O)C[C@H](NC(=O)OC(C)(C)C)C(=O)N[C@H]1CC[C@]2(C)[C@H]3C[C@@H](O)[C@@H]4[C@@H]([C@]5(C)CC[C@H](C(C)(C)O)O5)CC[C@@]4(C)[C@]3(C)CC[C@H]2C1(C)C | – | – | 152% | 28% | 41% | – | –
16 | CC(C)(O)[C@@H]1CC[C@@](C)([C@H]2CC[C@]3(C)[C@@H]2[C@H](O)C[C@@H]2[C@@]4(C)CC[C@H](NC(=O)[C@@H](N)Cc5ccccc5)C(C)(C)[C@@H]4CC[C@]23C)O1 | – | – | 89% | 36% | 67% | – | –
17 | CC(C)(C)OC(=O)N1CCC[C@H]1C(=O)N[C@H]1CC[C@]2(C)[C@H]3C[C@@H](O)[C@@H]4[C@@H]([C@]5(C)CC[C@@H](C(C)(C)O)O5)CC[C@@]4(C)[C@]3(C)CC[C@H]2C1(C)C | – | – | 111% | 30% | 44% | – | –
18 | CC(C)(O)[C@H]1CC[C@@](C)([C@H]2CC[C@]3(C)[C@@H]2[C@H](O)C[C@@H]2[C@@]4(C)CC[C@H](OC(=O)[C@@H]5CCCN5)C(C)(C)[C@@H]4CC[C@]23C)O1 | – | – | 108% | 61% | 76% | – | –
19 | CC(C)[C@H](NC(=O)OC(C)(C)C)C(=O)N[C@H]1CC[C@]2(C)[C@H]3C[C@@H](O)[C@@H]4[C@@H]([C@]5(C)CC[C@@H](C(C)(C)O)O5)CC[C@@]4(C)[C@]3(C)CC[C@H]2C1(C)C | – | – | 89% | 31% | 48% | – | –
20 | CC(C)(O)[C@H]1CC[C@@](C)([C@H]2CC[C@]3(C)[C@@H]2[C@H](O)C[C@@H]2[C@@]4(C)CC[C@H](N)C(C)(C)[C@@H]4CC[C@]23C)O1 | – | – | 98% | 40% | 44% | – | –
21 | CC(C)(O)[C@H]1CC[C@@](C)([C@H]2CC[C@]3(C)[C@@H]2[C@H](O)C[C@@H]2[C@@]4(C)CC[C@H](NC(=O)[C@@H](N)Cc5ccccc5)C(C)(C)[C@@H]4CC[C@]23C)O1 | 56 | 321 | 85% | 29% | 33% | – | –
22 | CC(C)[C@H](N)C(=O)N[C@H]1CC[C@]2(C)[C@H]3C[C@@H](O)[C@@H]4[C@@H]([C@]5(C)CC[C@@H](C(C)(C)O)O5)CC[C@@]4(C)[C@]3(C)CC[C@H]2C1(C)C | – | – | 79% | 52% | 81% | – | –
23 | CC(C)(O)[C@H]1CC[C@@](C)([C@H]2CC[C@]3(C)[C@@H]2[C@H](O)C[C@@H]2[C@@]4(C)CC[C@H](NC(=O)[C@@H](N)CC(=O)O)C(C)(C)[C@@H]4CC[C@]23C)O1 | – | – | 95% | 100% | 96% | – | –
24 | CC(C)(O)[C@@H]1CC[C@@](C)([C@H]2CC[C@]3(C)[C@@H]2[C@H](O)C[C@@H]2[C@@]4(C)CC[C@H](OC(=O)[C@@H]5CCCN5)C(C)(C)[C@@H]4CC[C@]23C)O1 | – | – | 113% | 116% | 113% | – | –
25 | CC(C)(O)[C@@H]1CC[C@@](C)([C@H]2CC[C@]3(C)[C@@H]2[C@H](O)C[C@@H]2[C@@]4(C)CC[C@H](N)C(C)(C)[C@@H]4CC[C@]23C)O1 | – | – | 98% | 55% | 94% | – | –
26 | CC(C)(C)OC(=O)NCCCCCC(=O)N[C@H]1CC[C@]2(C)[C@H]3C[C@@H](O)[C@@H]4C([C@]5(C)CC[C@H](C(C)(C)O)O5)CC[C@@]4(C)[C@]3(C)CC[C@H]2C1(C)C (stereo partly drawn) | – | – | 98% | 36% | 44% | Not Active | Not Active
27 | CC(C)(C)OC(=O)N[C@@H](Cc1ccc(OC(C)(C)C)cc1)C(=O)N[C@H]1CC[C@]2(C)[C@H]3C[C@@H](O)[C@@H]4[C@@H]([C@]5(C)CC[C@H](C(C)(C)O)O5)CC[C@@]4(C)[C@]3(C)CC[C@H]2C1(C)C | – | – | 125% | 38% | 42% | – | –
28 | CC(C)(O)[C@@H]1CC[C@@](C)([C@H]2CC[C@]3(C)[C@@H]2[C@H](O)C[C@@H]2[C@@]4(C)CC[C@H](NC(=O)[C@@H](N)CCCCN)C(C)(C)[C@@H]4CC[C@]23C)O1 | – | – | 87% | 88% | 90% | – | –
29 | COc1cc2c(cc1OC)CN(CCc1ccc(NC(=O)c3cc(OC)c(OC)cc3NC(=O)c3cnc4ccccc4c3)cc1)CC2 | 113 | 150 | – | – | – | – | –
30 | CC(C)(C)OC(=O)N[C@@H](Cc1ccccc1)C(=O)N[C@H]1CC[C@]2(C)[C@H]3C[C@@H](O)[C@@H]4[C@@H]([C@]5(C)CC[C@H](C(C)(C)O)O5)CC[C@@]4(C)[C@]3(C)CC[C@H]2C1(C)C | 22 | 82 | 104% | 24% | 30% | – | –
